The source of these data is patent US11066421B1, “Synthetic cinchona alkaloids against cancer” (Ares Pharmaceuticals, LLC, priority 2021, dated 2021).

For experiment [1], the system named is M24-MET human melanoma cells. The experiment is described as follows: CB.17 SCID mouse xenograft model of human malignant melanoma. In kind it is in vivo. The note with it: 5 mg/kg i.p. twice daily, 5 days on 2 days off. The procedure: Cell Lines. Human melanoma cell line M24-MET (ATCC CRL-12270) was obtained from American Type Culture Collection (Rockville, Md.) and maintained as a continuous cell line in DMEM supplemented with 10% fetal calf serum (FCS), 4 mm glutamine, 100 units/ml penicillin G, and […] streptomycin sulfate. All of the tissue culture reagents were obtained from Life Technologies, Inc. Inc. (Gaithersburg, Md.).
Mice. Female CB.17 SCID mice were obtained from Taconic (Germantown, N.Y.) and housed in a specific-pathogen-free room located in a secure indoor facility with controlled temperature, humidity, and noise levels. Mice were housed in micro-isolator cages and fed with autoclaved rodent chow. Water was also autoclaved and supplemented with trimethoprim/sulfamethoxazol 3 days a week. […]
SCID Mouse Model of Human Malignant Melanoma. […] The size of subcutaneous tumors were measured on day 14 and day 16 to evaluate the ability of AP-1 to inhibit tumor growth in this SCID mouse xenograft model of melanoma. Tumor volumes were calculated using the formula for the volume of a prolate spheroid, V=4/3×3.14×length/2×width/2×depth/2.

Experiment [2] relates to PC3 human prostate cancer cells. Kind of experiment: CB.17 SCID mouse xenograft model of human prostate cancer. In kind it is in vivo. The note with it: 2 mg/kg i.p. twice daily, 5 days on 2 days off. How it is done:
Cell Lines. Human prostate cancer cell line PC3 (ATCC CRL-1435) was obtained from American Type Culture Collection (Rockville, Md.) and maintained as a continuous cell line in DMEM supplemented with 10% fetal calf serum (FCS), 4 mm glutamine, 100 units/ml penicillin G, and […] streptomycin sulfate. All of the tissue culture reagents were obtained from Life Technologies, Inc. Inc. (Gaithersburg, Md.). Mice. Female CB.17 SCID mice were obtained from Taconic (Germantown, N.Y.) and housed in a specific-pathogen-free room located in a secure indoor facility with controlled temperature, humidity, and noise levels. Mice were housed in micro-isolator cages and fed with autoclaved rodent chow. Water was also autoclaved and supplemented with trimethoprim/sulfamethoxazol 3 days a week. The animal protocol used in this study was approved by the Drug Discovery Enterprises Animal Care and Use Committee (IACUC), and all of the animal care procedures conformed to the Guide for the Care and Use of Laboratory Animals (National Research Council, National Academy Press, Washington D.C. 1996). […] The size of subcutaneous tumors were measured on day 16 and day 18 to evaluate the ability of AP-8 to inhibit tumor growth in this SCID mouse xenograft model of prostate cancer. Tumor volumes were calculated using the formula for the volume of a prolate spheroid, V=4/3×3.14×length/2×width/2×depth/2.

Molecules are shown by their SMILES.

Consider `C=CC1CN2CCC1CC2C(Oc1cc(OC(c2ccnc3ccccc23)C2CC3CCN2CC3C=C)nc(OC(c2ccnc3ccccc23)C2CC3CCN2CC3C=C)n1)c1ccnc2ccccc12` (stereo not shown) [AP-1, 2,4,6-Tri(9-O-cinchoninyl)pyrimidine], for which the tumor progression entry in experiment [1] is reported as “significantly slowed down the tumor progression”. Further, the average tumor volume in experiment [1] (day 16, from day 7) worked out at 484.3±76.5 mm3.

For the molecule `CCC1CN2CCC1CC2C(Oc1cc(OC(c2ccnc3ccc(OC)cc23)C2CC3CCN2CC3CC)nc(OC(c2ccnc3ccc(OC)cc23)C2CC3CCN2CC3CC)n1)c1ccnc2ccc(OC)cc12` (stereo not shown) [AP-8, 2,4,6-Tri (9-O-dihydroquinidinyl)pyrimidine], in experiment [2], the tumor progression result is given as “significantly slowed down the tumor progression”. In experiment [2] (day 18, from day 7), this molecule had an average tumor volume of 45.1±7.8 mm^3.
